Where two headings read alike, the source gives them in different places.
Tests used:
KA2 = biological target: T1, KA2 (Rattus norvegicus, UniProt Q63273); assay: Radioligand binding ([3H]kainate displacement), HEK-293-T/17 membranes, Example 2; settings: Cheng-Prusoff
T1 construct: expressed in transfected cells; host or cells: HEK-293-T/17
T1 sequence (Q63273 15-979): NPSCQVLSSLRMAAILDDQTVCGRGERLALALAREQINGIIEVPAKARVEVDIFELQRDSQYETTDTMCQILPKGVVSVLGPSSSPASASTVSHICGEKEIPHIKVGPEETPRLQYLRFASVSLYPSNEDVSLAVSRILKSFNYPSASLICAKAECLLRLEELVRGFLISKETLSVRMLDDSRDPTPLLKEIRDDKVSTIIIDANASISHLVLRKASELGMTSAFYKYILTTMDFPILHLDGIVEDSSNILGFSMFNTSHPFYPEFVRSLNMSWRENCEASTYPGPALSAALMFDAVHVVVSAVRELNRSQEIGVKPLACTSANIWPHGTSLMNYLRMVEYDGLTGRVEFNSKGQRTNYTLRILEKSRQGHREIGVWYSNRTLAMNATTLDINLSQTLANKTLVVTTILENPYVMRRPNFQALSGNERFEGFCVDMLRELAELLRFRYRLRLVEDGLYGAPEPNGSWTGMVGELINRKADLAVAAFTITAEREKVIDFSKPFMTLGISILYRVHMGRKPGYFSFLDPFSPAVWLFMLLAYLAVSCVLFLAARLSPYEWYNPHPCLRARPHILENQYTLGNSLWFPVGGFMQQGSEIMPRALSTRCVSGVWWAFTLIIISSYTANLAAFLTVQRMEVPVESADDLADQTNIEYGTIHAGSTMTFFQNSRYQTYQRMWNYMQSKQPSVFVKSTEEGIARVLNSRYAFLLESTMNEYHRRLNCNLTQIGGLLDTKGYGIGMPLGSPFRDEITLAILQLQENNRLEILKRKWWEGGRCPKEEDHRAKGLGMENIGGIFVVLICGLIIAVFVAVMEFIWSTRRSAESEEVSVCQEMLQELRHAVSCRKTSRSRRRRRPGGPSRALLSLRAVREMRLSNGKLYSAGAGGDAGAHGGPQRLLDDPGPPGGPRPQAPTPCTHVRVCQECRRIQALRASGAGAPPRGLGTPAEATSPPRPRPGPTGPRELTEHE
Protocol: (§1) Radioligand binding. Membrane preparations from HEK-293-T/17 cells were prepared and used in radioligand binding assays as described previously (Sanders et al., 2005). Unlabeled analogs were used to displace [3H]kainate (10-20 nM, PerkinElmer Life and Analytical Sciences, Boston, Mass.) or [3H]AMPA (20 nM, PerkinElmer Life and Analytical Sciences, Boston, Mass.) from KARs and AMPARs, respectively. Nonspecific binding was determined in the presence of 1 mM glutamate. After 1 hour incubation at 4° C., samples were harvested by rapid filtration onto Whatman GF/C membranes. Upon addition of scintillation fluid, membranes were incubated for 1 hour at room temperature. A Beckman LS5000TD scintillation counter was used for quantification (Beckman Coulter Inc., Fullerton, Calif.). Data were plotted and fit with a one-site competition curve with fixed minima and maxima using Prism 4 (GraphPad Software, Inc). Ki's were calculated with the Cheng-Prusoff equation using the determined IC5o values and the radioligand Kd. Data were plotted and fit with a one-site competition curve with fixed minima (0) and maxima (100) (Prism4, GraphPad Software, Inc.). Correlation analysis was performed with these binding data and the seizure activity of each analog, represented as ED50 values.
(§2) The pharmacological profiles of the Group I analogs, 8-deoxy-neoDH and 9-deoxyneoDH, were analyzed initially in radioligand binding experiments with expressed recombinant AMPA and kainate receptor subunits. Displacement of [3H]kainate from cell membranes with a range of analog concentrations yielded IC50 values that were then used to calculate Ki values for each analog/receptor combination. Both Group 1 analogs retained high affinity only for GluR5-2a KAR subunits (FIG. 8A). […] Weak binding to other KAR and AMPAR subunits was observed, with all Ki values estimated at >10 μM (n=3-5; Table 3, FIG. 8A).
(§3) For comparison, the Ki values for neoDH and MSVIII-19 are included in the table (Sanders et al., 2005). Removal of the C9 hydroxyl eliminated binding to all receptor subunits (Ki values estimated at >100 μM), with the exception of GluR5-2a KARs.

GluR1(i) = biological target: T2, GluR1(i) (Rattus norvegicus, UniProt P19490); assay: Radioligand binding ([3H]AMPA displacement), HEK-293-T/17 membranes, Example 2; settings: Cheng-Prusoff
T2 construct: expressed in transfected cells; host or cells: HEK-293-T/17
Protocol: as §1, §2, §3

GluR2(i) = biological target: T3, GluR2(i) (Rattus norvegicus, UniProt P19491); assay: as above; settings: Cheng-Prusoff
T3 construct: expressed in transfected cells; host or cells: HEK-293-T/17
Protocol: as §1, §2, §3

[1] = biological target: T4, other KAR and AMPAR subunits; assay: Radioligand binding, remaining subunits stated collectively, Example 2; settings: estimated; read-out: Ki values at other KAR and AMPAR subunits (all subunits except those named)
T4 construct: Ki values at other KAR and AMPAR subunits (all subunits except those named); other: estimated
Protocol: as §1, §2, §3

[2] = system: other KAR and AMPAR subunits; assay: as above
Protocol: as §1, §2, §3

GluR1 = biological target: T5, GluR1 (Rattus norvegicus, UniProt P19490); assay: Radioligand displacement ([3H]AMPA), Example 1; format: binding
T5 construct: expressed in transfected cells; host or cells: COS-7 or HEK-T/17
Protocol: (§4) Dysiherbaine (DH) was used as a template for generating novel KAR ligands. (See FIG. 1.) These included 8-deoxy and 9-deoxy analogs of neodysiherbaine (neoDH). (See FIG. 2.) The binding of these analogs to glutamate receptors was assessed by radioligand binding as follows. Membrane preparations from COS-7 or HEK-T/17 cells were isolated 2-3 days after transfection. Displacement assays were performed as described previously (Swanson et al., NEURON 1997; 19:913-26). Unlabeled marine toxin analogs were used to displace [^3H]kainate or [^3H]AMPA (PerkinElmer) from kainate and AMPA receptors, respectively. (See FIG. 2 and Table 1.)
(§5) Non-specific binding was defined in the presence of 1 mM glutamate. The effect of these analogs on electrophysiology was assessed as follows. HEK 293 cells were transfected with receptor cDNAs in combination with eGFP cDNA. Patch-clamp recordings from transfected cells were made 24-72 hours later using a fast application system described previously (Swanson et al., NEURON 1997; 19:913-26). (See FIG. 3.)
(§6) Additional epimer analogs were generated. These included 4-epi-neodysiherbaine, 8-epi-neodysiherbaine, 9-epi-neodysiherbaine, and 8,9-epi-neodysiherbaine. (See FIG. 4.) The binding of these analogs to glutamate receptors was assessed by radioligand binding as described above. (See FIG. 4 and Table 2.)

GluR2 = biological target: T6, GluR2 (Rattus norvegicus, UniProt P19491); assay: Radioligand displacement ([3H]AMPA), Example 1; format: binding
T6 construct: expressed in transfected cells; host or cells: COS-7 or HEK-T/17
Protocol: as §4, §5, §6

[3] = [3H]kainate displacement, read-out: Ki KA2
[4] = Tables 1-2, read-out: GluR1 binding affinity (displacement of [3H]AMPA)
[5] = Tables 1-2, read-out: GluR2 binding affinity (displacement of [3H]AMPA)

T3 sequence (P19491 22-883 isoform P19491-2 limits assumed): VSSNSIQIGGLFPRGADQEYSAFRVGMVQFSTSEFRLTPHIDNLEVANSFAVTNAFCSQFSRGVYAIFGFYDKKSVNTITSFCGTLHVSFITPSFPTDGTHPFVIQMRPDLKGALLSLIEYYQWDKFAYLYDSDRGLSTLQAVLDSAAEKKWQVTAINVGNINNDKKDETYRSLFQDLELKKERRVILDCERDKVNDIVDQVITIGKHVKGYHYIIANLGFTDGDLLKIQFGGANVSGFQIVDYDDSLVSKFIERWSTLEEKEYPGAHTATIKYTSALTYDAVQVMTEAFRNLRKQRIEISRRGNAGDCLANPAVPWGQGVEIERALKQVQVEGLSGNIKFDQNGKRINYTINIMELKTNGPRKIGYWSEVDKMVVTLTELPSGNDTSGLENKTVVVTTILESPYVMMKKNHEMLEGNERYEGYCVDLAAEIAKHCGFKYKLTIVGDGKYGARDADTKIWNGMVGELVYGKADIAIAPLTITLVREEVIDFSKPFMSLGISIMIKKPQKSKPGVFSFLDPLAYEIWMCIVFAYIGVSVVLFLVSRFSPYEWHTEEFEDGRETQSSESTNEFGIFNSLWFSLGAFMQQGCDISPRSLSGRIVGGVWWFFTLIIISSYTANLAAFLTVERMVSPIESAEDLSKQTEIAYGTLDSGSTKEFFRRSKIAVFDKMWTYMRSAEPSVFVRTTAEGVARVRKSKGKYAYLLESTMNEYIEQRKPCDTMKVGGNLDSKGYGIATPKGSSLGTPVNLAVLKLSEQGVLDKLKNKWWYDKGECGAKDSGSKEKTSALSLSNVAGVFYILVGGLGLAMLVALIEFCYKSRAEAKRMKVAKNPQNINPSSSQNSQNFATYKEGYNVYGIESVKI
T6 sequence (P19491 22-883 isoform P19491-2 limits assumed): as above
T2 sequence (P19490 19-907 isoform P19490-2 limits assumed): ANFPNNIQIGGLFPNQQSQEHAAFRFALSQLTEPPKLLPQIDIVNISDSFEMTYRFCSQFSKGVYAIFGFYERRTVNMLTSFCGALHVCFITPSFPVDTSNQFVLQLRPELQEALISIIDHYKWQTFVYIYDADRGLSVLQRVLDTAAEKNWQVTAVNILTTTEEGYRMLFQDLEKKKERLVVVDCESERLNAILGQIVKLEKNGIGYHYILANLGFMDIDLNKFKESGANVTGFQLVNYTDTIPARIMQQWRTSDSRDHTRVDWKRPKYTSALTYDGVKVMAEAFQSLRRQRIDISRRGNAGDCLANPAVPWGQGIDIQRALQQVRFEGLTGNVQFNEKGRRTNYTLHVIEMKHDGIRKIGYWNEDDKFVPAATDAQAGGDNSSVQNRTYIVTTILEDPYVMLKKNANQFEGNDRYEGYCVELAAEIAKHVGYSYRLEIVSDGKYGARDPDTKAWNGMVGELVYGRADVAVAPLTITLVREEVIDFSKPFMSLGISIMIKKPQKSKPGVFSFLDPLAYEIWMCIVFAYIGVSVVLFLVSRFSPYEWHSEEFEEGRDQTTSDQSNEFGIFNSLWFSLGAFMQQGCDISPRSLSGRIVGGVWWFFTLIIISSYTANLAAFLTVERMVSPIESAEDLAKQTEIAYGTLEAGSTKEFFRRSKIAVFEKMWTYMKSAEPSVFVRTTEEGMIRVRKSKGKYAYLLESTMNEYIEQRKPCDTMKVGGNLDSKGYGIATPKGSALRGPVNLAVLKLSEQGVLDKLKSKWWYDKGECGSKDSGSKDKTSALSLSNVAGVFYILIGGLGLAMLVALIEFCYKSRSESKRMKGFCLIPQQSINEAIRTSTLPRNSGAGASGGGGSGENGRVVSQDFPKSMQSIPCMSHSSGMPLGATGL
T5 sequence (P19490 19-907 isoform P19490-2 limits assumed): as above

N[C@@H](C[C@@]1(C(=O)O)CC2OCC(O)C(O)C2O1)C(=O)O (single isomer, unassigned) [2,4-epi-neoDH, 2,4-epi-neodysiherbaine]
Ki (KA2; [3]): > 100 µM
Ki (GluR1(i); read-out: Ki GluR1(i)): > 100 µM
Ki (GluR2(i); read-out: Ki GluR2(i)): > 100 µM
Ki [1]: > 100 µM

N[C@@H](C[C@@]1(C(=O)O)CC2OCC(O)C(O)C2O1)C(=O)O (single isomer, unassigned) [4-epi-neoDH, 4-epi-neodysiherbaine]
Ki (KA2; [3]): ~30 µM
Ki (GluR1(i); read-out: Ki GluR1(i)): > 30 µM
Ki (GluR2(i); read-out: Ki GluR2(i)): > 30 µM
binding to other KA and AMPAR subunits [2]: weakly displaced radioligand

NC(CC1(C(=O)O)CC2OCC(O)C(O)C2O1)C(=O)O (stereo not drawn) [8,9-epi-neoDH, 8,9-epi-neodysiherbaine]
Ki (GluR1; [4]): > 100 µM
Ki (GluR2; [5]): > 100 µM
Ki (KA2; [3]): >100 µM
Ki (GluR1(i); read-out: Ki GluR1(i)): > 100 µM
Ki (GluR2(i); read-out: Ki GluR2(i)): > 100 µM
binding to other KA and AMPAR subunits [2]: effectively eliminated affinity for all receptor subunits

N[C@@H](C[C@]1(C(=O)O)C[C@H]2OC[C@@H](O)C[C@H]2O1)C(=O)O [8-deoxy-neoDH]
Ki (GluR1): > 100 µM
Ki (GluR2): > 100 µM
Ki (KA2; Ki KA2, [3H]kainate displacement): 20 µM
Ki (GluR1(i); Ki GluR1(i)): > 100 µM
Ki (GluR2(i); Ki GluR2(i)): > 100 µM
Ki [1]: > 10 µM

NC(CC1(C(=O)O)CC2OCC(O)C(O)C2O1)C(=O)O (stereo not drawn) [8-epi-neoDH, 8-epi-neodysiherbaine]
Ki (GluR1; [4]): 17 µM
Ki (GluR2; [5]): 23 µM
Ki (KA2; [3]): >100 µM
Ki (GluR1(i); read-out: Ki GluR1(i)): 16 µM
Ki (GluR2(i); read-out: Ki GluR2(i)): 23 µM

NC(CC1(C(=O)O)CC2OCC(F)C(O)C2O1)C(=O)O (stereo not drawn) [9-F-8-epi-neoDH]
Ki (KA2; [3]): >100 µM
Ki (GluR1(i); read-out: Ki GluR1(i)): > 100 µM
Ki (GluR2(i); read-out: Ki GluR2(i)): > 100 µM

N[C@@H](C[C@]1(C(=O)O)C[C@H]2OCC[C@@H](O)[C@H]2O1)C(=O)O [9-deoxy-neoDH]
Ki (GluR1; [4]): > 100 µM
Ki (GluR2; [5]): > 100 µM
Ki (KA2; [3]): > 100 µM
Ki (GluR1(i); read-out: Ki GluR1(i)): > 100 µM
Ki (GluR2(i); read-out: Ki GluR2(i)): > 100 µM
Ki [1]: > 100 µM

NC(CC1(C(=O)O)CC2OCC(O)C(O)C2O1)C(=O)O (stereo not drawn) [9-epi-neoDH, 9-epi-neodysiherbaine]
Ki (GluR1; [4]): > 100 µM
Ki (GluR2; [5]): > 100 µM
Ki (KA2; [3]): >100 µM
Ki (GluR1(i); read-out: Ki GluR1(i)): > 100 µM
Ki (GluR2(i); read-out: Ki GluR2(i)): > 100 µM
binding to other KA and AMPAR subunits [2]: inactive at other subunits

— patent publication US7973075B2, “Kainate receptor-selective epimeric analogs of dysiherbaine” (priority 2007, dated 2011)
